This note sets out measurements from ChEMBL document CHEMBL1124630, “Fluoronaphthyridines and quinolones as antibacterial agents. 1. Synthesis and structure-activity relationships of new 1-substituted derivatives” (J Med Chem, 1989).

Usually MIC stands for the smallest concentration in the dilution series that meets the test's criterion for growth inhibition. The term Cmax denotes the peak of the concentration-time curve. Usually half-life stands for the time needed for the level to fall by half in the phase considered. The LD50 is the dose at which mortality reaches 50%.

Data set [1] can be described thus: Urinary recovery after 24 hr in plasma after oral administration in dog (25 mg/kg). The format is ADME, organism-based, Canis lupus familiaris. The conditions noted are these: urine, read-out: UR.
In data set [2] the test system is Escherichia coli. The data set can be described thus: In vivo efficacy in systemic infection due to Escherichia coli (A 15119) in mice. Type of data set: functional. The conditions noted are these: read-out: PD50.
In data set [3] the test system is Pseudomonas aeruginosa. Briefly: In vitro antibacterial activity against Pseudomonas aeruginosa (A 9843). The format is functional. The conditions noted are these: Pseudomonas aeruginosa; read-out: MIC.
A further data set has as its system Morganella morganii. The data set can be described thus: In vitro antibacterial activity against Morganella morganii (A 15153). The conditions noted are these: Morganella morganii; read-out: MIC. The format is functional.
For data set [4], the system named is Staphylococcus aureus. The data set can be described thus: In vivo efficacy in systemic infection due to Staphylococcus aureus Smith (A 9537) in mice. Type of data set: functional. The conditions noted are these: read-out: PD50.
The test system of data set [5] is Klebsiella pneumoniae. The data set can be described thus: In vivo efficacy in systemic infection due to Klebsiella pneumoniae (A 9664) in mice. The format is functional. The conditions noted are these: read-out: PD50.
The subject of data set [6] is Staphylococcus aureus. The data set can be described thus: In vitro antibacterial activity against Staphylococcus aureus Smith (A9537). The format is functional. The following applies: Staphylococcus aureus; read-out: MIC.
For another data set, the system named is Canis familiaris. Briefly: Area under the concentration/ time in plasma after oral administration in dog (25 mg/kg). Type of data set: ADME, organism-based, Canis lupus familiaris. The following applies: in vivo.
Data set [7] is described as follows: Maximum concentration in plasma after oral administration in dog (25 mg/kg). Type of data set: ADME, organism-based, Canis lupus familiaris. On the set-up: dose 25 mg/kg, route oral.
Data set [8] concerns Pseudomonas aeruginosa. Briefly: In vivo efficacy in systemic infection due to Pseudomonas aeruginosa (A 9843) in mice. Type of data set: functional. The following applies: read-out: PD50.
The test system of data set [9] is Klebsiella pneumoniae. Briefly: In vitro antibacterial activity against Klebsiella pneumoniae (A 9664). The format is functional. The following applies: Klebsiella pneumoniae; read-out: MIC.
Data set [10] has as its system Escherichia coli. Briefly: In vitro antibacterial activity against Escherichia coli (A 15119). The format is functional. The following applies: Escherichia coli; read-out: MIC.
For the next data set, the system named is Enterobacter cloacae. Briefly: In vitro antibacterial activity against Enterobacter cloacae (A 9656). Type of data set: functional. The conditions noted are these: Enterobacter cloacae; read-out: MIC.
The nature of data set [11]: Half-life in plasma after oral administration in dog (25 mg/kg). The format is ADME, organism-based, Canis lupus familiaris.
The nature of data set [12]: Lethal dose of compound in OF1-strain female swiss mice after oral administration. The conditions noted are these: mouse, in vivo. The format is toxicity, organism-based.

≈ marks a conversion by molar mass, not a printed value.

Turning to `O=C(O)c1cn(C2CC2)c2cc(N3CCNCC3)c(F)cc2c1=O` [CIPROFLOXACIN], in data set [1], the dose excreted at 24 h was 17%. The ED50 is 0.7 mg/kg with Escherichia coli [2], 4 mg/kg in the data set with Staphylococcus aureus [4], 1.5 mg/kg in the data set on Klebsiella pneumoniae [5] and 5 mg/kg in the data set with Pseudomonas aeruginosa [8]. In addition, the MIC worked out at 0.13 µg/mL (≈ 0.392 µM) with Pseudomonas aeruginosa [3], 0.015 µg/mL (≈ 0.0453 µM) in the data set on Morganella morganii, 0.13 µg/mL (≈ 0.392 µM) in the data set with Staphylococcus aureus [6] and 0.03 µg/mL (≈ 0.0905 µM) with Klebsiella pneumoniae [9]. The molecule also gave an AUC in the data set on Canis familiaris of 20 µg/mL. Also, the highest concentration (Cmax) in [7] amounted to 3000 ng/mL.
Consider `C=C(C)n1cc(C(=O)O)c(=O)c2cc(F)c(N3CCNCC3)nc21`, for which the MIC worked out at 0.13 µg/mL (≈ 0.391 µM) in the data set with Escherichia coli [10]; 2 µg/mL (≈ 6.02 µM) with Pseudomonas aeruginosa [3]; 0.25 µg/mL (≈ 0.752 µM) with Enterobacter cloacae; 0.5 µg/mL (≈ 1.5 µM) in the data set on Morganella morganii; 0.5 µg/mL (≈ 1.5 µM) in the data set with Staphylococcus aureus [6]; 0.13 µg/mL (≈ 0.391 µM) with Klebsiella pneumoniae [9]. The ED50 with Staphylococcus aureus [4] stood at 15 mg/kg; with Pseudomonas aeruginosa [8], 20 mg/kg.
Consider `O=C(O)c1cn(-c2ccc(F)cc2)c2nc(N3CCNCC3)c(F)cc2c1=O`, for which the MIC in the data set on Escherichia coli [10] was found to be 0.05 µg/mL (≈ 0.129 µM); in the data set with Pseudomonas aeruginosa [3], 0.39 µg/mL (≈ 1.01 µM); in the data set with Staphylococcus aureus [6] it was 0.39 µg/mL (≈ 1.01 µM); with Klebsiella pneumoniae [9], 0.1 µg/mL (≈ 0.259 µM).
Turning to `CC1(n2cc(C(=O)O)c(=O)c3cc(F)c(N4CCNCC4)cc32)CC1`, the MIC in the data set on Escherichia coli [10] came out at 0.06 µg/mL (≈ 0.174 µM); with Pseudomonas aeruginosa [3], 0.5 µg/mL (≈ 1.45 µM); with Enterobacter cloacae it was 0.5 µg/mL (≈ 1.45 µM); in the data set with Morganella morganii it was 0.25 µg/mL (≈ 0.724 µM); in the data set on Staphylococcus aureus [6], 0.25 µg/mL (≈ 0.724 µM); in the data set on Klebsiella pneumoniae [9] it was 0.25 µg/mL (≈ 0.724 µM).
`O=C(O)c1cn(C2CC2)c2c(F)c(N3CCNCC3)c(F)cc2c1=O`: the MIC in the data set with Escherichia coli [10] amounted to 0.03 µg/mL (≈ 0.0859 µM); with Pseudomonas aeruginosa [3] it was 0.25 µg/mL (≈ 0.716 µM); in the data set with Enterobacter cloacae, 0.06 µg/mL (≈ 0.172 µM); in the data set on Morganella morganii it was 0.008 µg/mL (≈ 0.0229 µM); in the data set with Staphylococcus aureus [6], 0.13 µg/mL (≈ 0.372 µM); in the data set with Klebsiella pneumoniae [9], 0.06 µg/mL (≈ 0.172 µM).
For the molecule `CCC(C)(C)n1cc(C(=O)O)c(=O)c2cc(F)c(N3CCNCC3)cc21`, the MIC turned out to be 0.5 µg/mL (≈ 1.38 µM) in the data set with Escherichia coli [10]; 4 µg/mL (≈ 11.1 µM) with Pseudomonas aeruginosa [3]; 1 µg/mL (≈ 2.77 µM) with Enterobacter cloacae; 4 µg/mL (≈ 11.1 µM) in the data set on Morganella morganii; 0.25 µg/mL (≈ 0.692 µM) in the data set on Staphylococcus aureus [6]; 1 µg/mL (≈ 2.77 µM) with Klebsiella pneumoniae [9].
As for `CC1(C)CC1n1cc(C(=O)O)c(=O)c2cc(F)c(N3CCNCC3)cc21` (stereo not given), the minimal inhibitory concentration (MIC) in the data set on Escherichia coli [10] stood at 1 µg/mL (≈ 2.78 µM); in the data set with Pseudomonas aeruginosa [3], 32 µg/mL (≈ 89 µM); in the data set on Enterobacter cloacae it was 4 µg/mL (≈ 11.1 µM); with Morganella morganii, 8 µg/mL (≈ 22.3 µM); in the data set with Staphylococcus aureus [6], 1 µg/mL (≈ 2.78 µM); in the data set on Klebsiella pneumoniae [9] it was 2 µg/mL (≈ 5.56 µM).
Take `C=C(C)n1cc(C(=O)O)c(=O)c2cc(F)c(N3CCNCC3)cc21`: the minimal inhibitory concentration (MIC) in the data set with Escherichia coli [10] was found to be 0.13 µg/mL (≈ 0.392 µM); in the data set with Pseudomonas aeruginosa [3], 0.5 µg/mL (≈ 1.51 µM); with Enterobacter cloacae, 0.06 µg/mL (≈ 0.181 µM); in the data set with Morganella morganii it was 0.13 µg/mL (≈ 0.392 µM); in the data set on Staphylococcus aureus [6], 0.5 µg/mL (≈ 1.51 µM); in the data set on Klebsiella pneumoniae [9], 0.25 µg/mL (≈ 0.754 µM).
Regarding `CC(C)n1cc(C(=O)O)c(=O)c2cc(F)c(N3CCNCC3)nc21`, the minimum inhibitory concentration (MIC) in the data set with Escherichia coli [10] is 0.25 µg/mL (≈ 0.748 µM); in the data set on Pseudomonas aeruginosa [3], 4 µg/mL (≈ 12 µM); in the data set on Enterobacter cloacae it was 0.5 µg/mL (≈ 1.5 µM); in the data set on Morganella morganii, 1 µg/mL (≈ 2.99 µM); with Staphylococcus aureus [6] it was 2 µg/mL (≈ 5.98 µM); in the data set on Klebsiella pneumoniae [9], 1 µg/mL (≈ 2.99 µM).
Consider `CC(C)n1cc(C(=O)O)c(=O)c2cc(F)c(N3CCNCC3)cc21`, for which the minimal inhibitory concentration (MIC) is 0.5 µg/mL (≈ 1.5 µM) in the data set on Escherichia coli [10]; 1 µg/mL (≈ 3 µM) in the data set with Pseudomonas aeruginosa [3]; 2 µg/mL (≈ 6 µM) in the data set on Enterobacter cloacae; 0.25 µg/mL (≈ 0.75 µM) in the data set with Morganella morganii; 1 µg/mL (≈ 3 µM) with Staphylococcus aureus [6]; 1 µg/mL (≈ 3 µM) in the data set on Klebsiella pneumoniae [9].
For the molecule `CC(C)(C)n1cc(C(=O)O)c(=O)c2cc(F)c(N3CCNCC3)cc21`, the dose excreted at 24 h in data set [1] turned out to be 17%. Further, the minimal inhibitory concentration (MIC) in the data set on Escherichia coli [10] came to 0.06 µg/mL (≈ 0.173 µM); with Pseudomonas aeruginosa [3] it was 0.5 µg/mL (≈ 1.44 µM); in the data set on Enterobacter cloacae, 0.13 µg/mL (≈ 0.374 µM); with Morganella morganii it was 0.25 µg/mL (≈ 0.72 µM); in the data set on Staphylococcus aureus [6], 0.06 µg/mL (≈ 0.173 µM); with Klebsiella pneumoniae [9] it was 0.13 µg/mL (≈ 0.374 µM). Further, in data set [11], the half-life was 4.4 h. Besides, the ED50 in the data set with Staphylococcus aureus [4] amounted to 8 mg/kg; in the data set on Pseudomonas aeruginosa [8] it was 18 mg/kg. The molecule also came in with an AUC with Canis familiaris of 50 µg/mL. Further, the LD50 in data set [12] is above 2500 mg/kg. Also, in data set [7], the maximum concentration (Cmax) was determined as 6400 ng/mL.
As for `CC(c1ccccc1)n1cc(C(=O)O)c(=O)c2cc(F)c(N3CCNCC3)cc21` (stereo not given), the MIC in the data set with Escherichia coli [10] was found to be 2 µg/mL (≈ 5.06 µM); with Pseudomonas aeruginosa [3], 32 µg/mL (≈ 80.9 µM); in the data set on Enterobacter cloacae it was 4 µg/mL (≈ 10.1 µM); in the data set with Morganella morganii it was 16 µg/mL (≈ 40.5 µM); with Staphylococcus aureus [6] it was 4 µg/mL (≈ 10.1 µM); in the data set with Klebsiella pneumoniae [9], 4 µg/mL (≈ 10.1 µM).
Take `CC(C)(C)n1cc(C(=O)O)c(=O)c2cc(F)c(N3CCNCC3)c(F)c21`: the MIC was determined as 0.06 µg/mL (≈ 0.164 µM) with Escherichia coli [10]; 4 µg/mL (≈ 10.9 µM) in the data set on Pseudomonas aeruginosa [3]; 0.25 µg/mL (≈ 0.684 µM) in the data set on Enterobacter cloacae; 0.5 µg/mL (≈ 1.37 µM) in the data set with Morganella morganii; 0.25 µg/mL (≈ 0.684 µM) with Staphylococcus aureus [6]; 0.25 µg/mL (≈ 0.684 µM) in the data set with Klebsiella pneumoniae [9].
